Experimental data reported in ChEMBL document CHEMBL1201862, “PubChem BioAssay data set” (2004).
Where “and” joins values, the source holds several entries; their conditions need not be identical. Identical values can stand only once. Blank lines part the entries; values can stand above or below the compound they belong to. Calls of active or inactive are those of the source.

Key:
CAAX prenyl protease 2 [1] = target: T1, CAAX prenyl protease 2 (Saccharomyces cerevisiae S288c, UniProt Q03530); assay type: biochemical
T1 sequence (Q03530 whole entry): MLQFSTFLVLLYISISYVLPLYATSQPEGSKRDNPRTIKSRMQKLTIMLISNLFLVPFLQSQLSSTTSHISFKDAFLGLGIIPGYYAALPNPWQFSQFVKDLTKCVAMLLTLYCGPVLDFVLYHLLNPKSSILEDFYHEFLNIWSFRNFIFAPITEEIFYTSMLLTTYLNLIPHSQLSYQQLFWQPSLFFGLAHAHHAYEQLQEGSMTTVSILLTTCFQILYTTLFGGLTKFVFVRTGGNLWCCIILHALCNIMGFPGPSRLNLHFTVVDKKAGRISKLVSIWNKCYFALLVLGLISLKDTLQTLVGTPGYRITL

Trypsin = Trypsin (Sus scrofa, UniProt P00761); experiment: trypsin protease activity blockade – biochemical, quenched peptide fluorescence, cherry-pick, selectivity assay for Rce1 protease inhibitor project, dose response (AID 488789)
CAAX prenyl protease 2 [2] = target: T2, CAAX prenyl protease 2 (Homo sapiens, UniProt Q9Y256); experiment: inhibition of Ras-converting CAAX protease Rce1 – biochemical, yeast membranes, quenched-peptide fluorescence, cherry-pick, dose response (AID 588849)
T2 sequence (Q9Y256 whole entry): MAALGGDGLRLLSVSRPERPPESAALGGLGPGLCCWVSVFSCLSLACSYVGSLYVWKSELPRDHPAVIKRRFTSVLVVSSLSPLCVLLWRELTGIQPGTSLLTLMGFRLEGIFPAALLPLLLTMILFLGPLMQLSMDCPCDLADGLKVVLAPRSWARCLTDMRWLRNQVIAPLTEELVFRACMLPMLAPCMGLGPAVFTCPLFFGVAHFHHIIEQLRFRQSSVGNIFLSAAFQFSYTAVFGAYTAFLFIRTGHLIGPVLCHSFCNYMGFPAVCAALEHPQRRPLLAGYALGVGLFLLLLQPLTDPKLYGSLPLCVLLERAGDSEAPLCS

HEK293 = experiment: cells; assay type: functional, cell-based; conditions: Homo sapiens
[3] = target: T3, Nuclear receptor subfamily 0 group B member 1 (Homo sapiens, UniProt P51843); experiment: Luminescence-based cell-based high throughput dose response assay for inhibitors of the orphan nuclear receptor subfamily 0, group B, member 1 (DAX1; NR0B1). [Related pubchem assays (depositor defined):AID504766, AID504790]; assay type: functional
T3 sequence (P51843 whole entry): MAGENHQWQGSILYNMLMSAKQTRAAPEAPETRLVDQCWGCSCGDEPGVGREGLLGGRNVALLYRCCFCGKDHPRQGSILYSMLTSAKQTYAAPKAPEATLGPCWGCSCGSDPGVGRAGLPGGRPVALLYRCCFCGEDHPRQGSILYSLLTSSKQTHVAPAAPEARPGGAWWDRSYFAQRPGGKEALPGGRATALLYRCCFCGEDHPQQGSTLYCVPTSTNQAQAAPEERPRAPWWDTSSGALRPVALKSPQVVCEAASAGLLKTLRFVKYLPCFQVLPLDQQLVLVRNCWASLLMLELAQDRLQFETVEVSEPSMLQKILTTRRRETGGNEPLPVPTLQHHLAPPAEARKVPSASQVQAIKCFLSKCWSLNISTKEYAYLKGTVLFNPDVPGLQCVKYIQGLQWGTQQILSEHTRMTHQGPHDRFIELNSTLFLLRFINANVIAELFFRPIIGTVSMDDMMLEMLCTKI

[4] = target: Voltage-gated inwardly rectifying potassium channel KCNH2 (Homo sapiens, UniProt Q12809); conditions: Potency;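 note: confirmatory quantitative high-throughput screen measuring inhibition of hERG channel activity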
Cytochrome P450 1A2 = target: T4, Cytochrome P450 1A2 (Homo sapiens, UniProt P05177);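 note: PubChem cytochrome P450 panel assay, CYP1A2 panel member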
T4 sequence (P05177 whole entry): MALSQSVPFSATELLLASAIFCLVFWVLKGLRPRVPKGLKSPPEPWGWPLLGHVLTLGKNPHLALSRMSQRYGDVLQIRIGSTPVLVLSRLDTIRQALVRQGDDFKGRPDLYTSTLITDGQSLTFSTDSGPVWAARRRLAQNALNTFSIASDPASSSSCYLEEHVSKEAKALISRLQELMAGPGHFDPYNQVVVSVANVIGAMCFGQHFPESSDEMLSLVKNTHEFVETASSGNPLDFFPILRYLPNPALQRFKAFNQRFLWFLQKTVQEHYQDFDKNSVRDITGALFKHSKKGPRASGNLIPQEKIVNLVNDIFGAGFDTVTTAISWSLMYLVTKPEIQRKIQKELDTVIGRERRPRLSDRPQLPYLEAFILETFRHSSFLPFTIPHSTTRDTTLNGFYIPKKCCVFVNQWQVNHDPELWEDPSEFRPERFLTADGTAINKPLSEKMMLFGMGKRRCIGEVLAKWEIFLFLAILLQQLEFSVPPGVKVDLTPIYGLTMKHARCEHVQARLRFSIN

[5] = target: T5, Sentrin-specific protease 6 (Homo sapiens, UniProt Q9GZR1); assay type: functional;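 note: Luminescence-based dose-response confirmatory assay of SENP6 inhibition, following up an ultra-high-throughput screen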
T5 sequence (Q9GZR1 whole entry): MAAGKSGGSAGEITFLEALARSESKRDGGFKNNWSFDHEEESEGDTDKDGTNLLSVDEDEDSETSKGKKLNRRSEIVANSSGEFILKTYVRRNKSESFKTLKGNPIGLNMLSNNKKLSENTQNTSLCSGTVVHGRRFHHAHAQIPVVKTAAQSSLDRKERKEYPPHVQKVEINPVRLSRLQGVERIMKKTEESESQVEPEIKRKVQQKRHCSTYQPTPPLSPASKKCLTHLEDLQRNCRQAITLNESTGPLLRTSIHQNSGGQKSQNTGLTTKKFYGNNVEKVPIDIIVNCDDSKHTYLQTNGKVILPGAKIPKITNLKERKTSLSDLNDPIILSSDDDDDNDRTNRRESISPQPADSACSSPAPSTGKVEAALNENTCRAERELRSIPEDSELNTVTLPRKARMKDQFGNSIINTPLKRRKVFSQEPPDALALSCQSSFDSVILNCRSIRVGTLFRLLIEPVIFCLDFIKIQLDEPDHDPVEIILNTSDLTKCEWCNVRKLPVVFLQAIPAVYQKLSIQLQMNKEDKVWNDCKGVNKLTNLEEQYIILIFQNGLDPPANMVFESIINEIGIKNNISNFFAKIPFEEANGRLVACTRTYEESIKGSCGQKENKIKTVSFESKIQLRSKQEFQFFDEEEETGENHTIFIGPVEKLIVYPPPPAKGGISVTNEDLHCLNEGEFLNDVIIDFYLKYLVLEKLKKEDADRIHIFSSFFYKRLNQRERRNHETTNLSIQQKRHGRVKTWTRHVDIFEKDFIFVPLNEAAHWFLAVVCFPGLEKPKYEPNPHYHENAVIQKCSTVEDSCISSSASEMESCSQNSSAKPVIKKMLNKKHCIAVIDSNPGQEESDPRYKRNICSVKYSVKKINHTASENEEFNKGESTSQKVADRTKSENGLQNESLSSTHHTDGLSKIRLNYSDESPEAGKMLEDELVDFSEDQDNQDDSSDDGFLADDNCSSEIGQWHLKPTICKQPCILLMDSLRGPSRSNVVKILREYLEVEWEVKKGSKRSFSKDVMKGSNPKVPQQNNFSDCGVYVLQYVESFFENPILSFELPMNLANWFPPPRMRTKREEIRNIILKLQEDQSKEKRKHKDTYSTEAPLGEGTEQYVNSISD

Caspase-3 = target: T6, Caspase-3 (Homo sapiens, UniProt P42574); assay type: functional;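 note: Dose-response selectivity test against caspase-3 for candidate inhibitors of sentrin-specific proteases (SENPs)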
T6 sequence (P42574 whole entry): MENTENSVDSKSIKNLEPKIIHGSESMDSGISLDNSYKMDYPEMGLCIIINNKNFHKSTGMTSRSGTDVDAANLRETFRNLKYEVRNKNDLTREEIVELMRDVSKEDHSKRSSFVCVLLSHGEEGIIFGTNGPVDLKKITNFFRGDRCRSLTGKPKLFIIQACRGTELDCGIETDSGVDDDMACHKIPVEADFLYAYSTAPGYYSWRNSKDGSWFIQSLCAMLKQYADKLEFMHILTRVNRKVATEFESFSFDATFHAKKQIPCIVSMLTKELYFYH

[6] = target: T7, Sentrin-specific protease 7 (Homo sapiens, UniProt Q9BQF6); assay type: functional;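 note: Luminescence-based dose-response confirmation of ultra-high-throughput screening hits, measuring inhibition of SENP7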
T7 sequence (Q9BQF6 whole entry): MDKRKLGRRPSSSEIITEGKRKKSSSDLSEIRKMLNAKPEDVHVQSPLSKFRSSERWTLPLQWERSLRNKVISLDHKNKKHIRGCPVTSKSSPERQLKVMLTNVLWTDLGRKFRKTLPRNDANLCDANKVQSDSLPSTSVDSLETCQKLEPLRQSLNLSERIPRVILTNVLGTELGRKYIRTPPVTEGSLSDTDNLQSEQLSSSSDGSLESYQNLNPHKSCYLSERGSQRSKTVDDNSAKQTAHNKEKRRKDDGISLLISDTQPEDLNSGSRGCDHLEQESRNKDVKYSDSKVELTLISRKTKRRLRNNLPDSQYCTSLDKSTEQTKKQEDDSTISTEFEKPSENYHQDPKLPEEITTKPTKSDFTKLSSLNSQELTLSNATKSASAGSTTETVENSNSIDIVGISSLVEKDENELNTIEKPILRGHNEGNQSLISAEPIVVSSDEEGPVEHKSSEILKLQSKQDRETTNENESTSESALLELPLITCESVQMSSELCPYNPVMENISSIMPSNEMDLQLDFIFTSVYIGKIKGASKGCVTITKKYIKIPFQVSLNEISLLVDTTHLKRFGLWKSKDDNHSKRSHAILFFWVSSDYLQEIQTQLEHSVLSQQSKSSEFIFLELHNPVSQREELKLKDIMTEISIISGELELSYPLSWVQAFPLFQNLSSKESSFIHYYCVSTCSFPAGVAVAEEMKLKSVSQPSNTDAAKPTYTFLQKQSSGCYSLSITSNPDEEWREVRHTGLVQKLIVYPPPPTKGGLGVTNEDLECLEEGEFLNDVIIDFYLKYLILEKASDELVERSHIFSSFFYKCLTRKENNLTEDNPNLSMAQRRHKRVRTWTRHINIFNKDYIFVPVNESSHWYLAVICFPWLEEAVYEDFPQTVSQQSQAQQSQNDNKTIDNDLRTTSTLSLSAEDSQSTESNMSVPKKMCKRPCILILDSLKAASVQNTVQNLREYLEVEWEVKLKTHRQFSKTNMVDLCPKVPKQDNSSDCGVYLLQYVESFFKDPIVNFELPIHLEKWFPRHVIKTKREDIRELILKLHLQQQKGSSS

[7] = target: T8, Sentrin-specific protease 8 (Homo sapiens, UniProt Q96LD8); assay type: functional;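 note: luminescence read-out of SENP8 inhibition, dose-response confirmation following an ultra-high-throughput screen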
T8 sequence (Q96LD8 whole entry): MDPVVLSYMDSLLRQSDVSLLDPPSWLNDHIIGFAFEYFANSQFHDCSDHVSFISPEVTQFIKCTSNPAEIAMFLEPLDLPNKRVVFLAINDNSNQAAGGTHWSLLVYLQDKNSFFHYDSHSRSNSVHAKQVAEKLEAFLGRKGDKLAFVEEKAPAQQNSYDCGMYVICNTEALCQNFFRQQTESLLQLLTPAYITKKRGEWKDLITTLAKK

Cytochrome P450 3A4 = Cytochrome P450 3A4 (Homo sapiens, UniProt P08684);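 note: CYP3A4 tested as one member of a cytochrome P450 panel screen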
[8] = target: 5-hydroxytryptamine receptor 2A (Mus musculus, UniProt P35363); assay type: functional, cell-based;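 note: CHO-K1 cells with tagged receptor and beta-arrestin; agonist potency measured as compound-induced activation of the receptor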
Mu-type opioid receptor = Mu-type opioid receptor (Homo sapiens, UniProt P35372); assay type: functional, cell-based;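 note: U2OS cells with beta-arrestin recruitment to OPRM1 by beta-gal complementation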
Cytochrome P450 2C19 = Cytochrome P450 2C19 (Homo sapiens, UniProt P33261); experiment: Cytochrome panel assay with activity outcomes. Panel member name: p450-cyp2c19 Compounds with AC50 equal or less than 10 uM are considered active; assay type: functional; conditions: read-out: AC50
Cytochrome P450 2D6 = Cytochrome P450 2D6 (Homo sapiens, UniProt P10635);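 note: CYP2D6 member of a cytochrome P450 panel assay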
Cytochrome P450 2D6, sequence (P10635 whole entry): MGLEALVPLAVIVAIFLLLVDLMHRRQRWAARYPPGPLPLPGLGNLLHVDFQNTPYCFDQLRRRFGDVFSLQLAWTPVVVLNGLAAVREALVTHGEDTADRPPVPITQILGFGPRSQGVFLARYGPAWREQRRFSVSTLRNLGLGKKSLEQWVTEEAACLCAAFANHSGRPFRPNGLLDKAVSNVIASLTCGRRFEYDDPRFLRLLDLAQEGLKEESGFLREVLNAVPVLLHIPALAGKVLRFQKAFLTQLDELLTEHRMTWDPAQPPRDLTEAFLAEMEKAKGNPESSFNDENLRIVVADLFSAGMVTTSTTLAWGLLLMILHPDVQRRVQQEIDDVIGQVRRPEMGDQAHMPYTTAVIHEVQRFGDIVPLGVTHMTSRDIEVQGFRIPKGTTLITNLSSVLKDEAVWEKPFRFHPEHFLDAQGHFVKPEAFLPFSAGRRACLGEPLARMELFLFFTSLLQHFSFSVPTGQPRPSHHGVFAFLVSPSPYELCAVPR

Voltage-gated inwardly rectifying potassium channel KCNH2, sequence (Q12809 whole entry): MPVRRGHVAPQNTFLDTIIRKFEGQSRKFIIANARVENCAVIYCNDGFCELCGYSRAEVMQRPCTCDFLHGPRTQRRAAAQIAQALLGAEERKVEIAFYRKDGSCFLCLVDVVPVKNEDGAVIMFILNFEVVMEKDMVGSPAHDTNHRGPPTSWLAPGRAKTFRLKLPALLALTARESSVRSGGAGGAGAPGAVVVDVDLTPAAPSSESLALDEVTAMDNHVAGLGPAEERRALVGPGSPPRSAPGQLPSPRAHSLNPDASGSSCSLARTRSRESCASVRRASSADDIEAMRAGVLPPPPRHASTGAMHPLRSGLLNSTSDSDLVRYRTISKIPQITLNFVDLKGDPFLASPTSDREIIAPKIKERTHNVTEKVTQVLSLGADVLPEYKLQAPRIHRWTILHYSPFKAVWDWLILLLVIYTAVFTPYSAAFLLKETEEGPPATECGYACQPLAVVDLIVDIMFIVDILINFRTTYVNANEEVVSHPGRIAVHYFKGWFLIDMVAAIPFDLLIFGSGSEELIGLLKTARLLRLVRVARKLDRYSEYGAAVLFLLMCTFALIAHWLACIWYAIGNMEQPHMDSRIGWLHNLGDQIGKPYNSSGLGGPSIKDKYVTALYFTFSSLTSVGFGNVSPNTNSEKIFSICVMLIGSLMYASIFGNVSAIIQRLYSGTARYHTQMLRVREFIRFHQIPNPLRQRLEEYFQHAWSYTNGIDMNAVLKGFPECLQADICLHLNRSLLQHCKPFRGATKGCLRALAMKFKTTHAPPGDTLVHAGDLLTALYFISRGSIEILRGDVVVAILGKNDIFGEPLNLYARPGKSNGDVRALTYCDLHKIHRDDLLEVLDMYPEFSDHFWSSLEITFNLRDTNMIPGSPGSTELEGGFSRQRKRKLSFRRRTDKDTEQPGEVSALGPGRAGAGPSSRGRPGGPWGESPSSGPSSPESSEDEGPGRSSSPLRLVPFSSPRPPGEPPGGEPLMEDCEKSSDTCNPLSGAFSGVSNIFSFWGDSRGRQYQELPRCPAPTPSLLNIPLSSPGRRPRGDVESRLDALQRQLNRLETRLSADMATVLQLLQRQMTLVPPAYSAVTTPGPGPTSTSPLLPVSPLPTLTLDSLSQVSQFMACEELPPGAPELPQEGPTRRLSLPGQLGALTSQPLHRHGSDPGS
5-hydroxytryptamine receptor 2A, sequence (P35363 whole entry): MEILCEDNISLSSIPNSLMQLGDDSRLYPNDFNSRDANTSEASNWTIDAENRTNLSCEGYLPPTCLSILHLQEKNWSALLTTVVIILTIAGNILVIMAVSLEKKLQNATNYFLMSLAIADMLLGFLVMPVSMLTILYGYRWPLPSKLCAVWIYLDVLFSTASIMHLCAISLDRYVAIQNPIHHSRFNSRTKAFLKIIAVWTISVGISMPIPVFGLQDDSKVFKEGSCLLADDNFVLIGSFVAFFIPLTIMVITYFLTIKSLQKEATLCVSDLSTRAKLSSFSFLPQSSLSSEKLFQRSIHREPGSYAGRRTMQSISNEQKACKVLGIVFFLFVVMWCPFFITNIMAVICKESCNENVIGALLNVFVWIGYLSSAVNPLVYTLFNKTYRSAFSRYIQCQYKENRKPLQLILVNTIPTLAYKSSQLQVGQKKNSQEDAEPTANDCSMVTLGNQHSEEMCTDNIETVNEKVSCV
Cytochrome P450 2C19, sequence (P33261 whole entry): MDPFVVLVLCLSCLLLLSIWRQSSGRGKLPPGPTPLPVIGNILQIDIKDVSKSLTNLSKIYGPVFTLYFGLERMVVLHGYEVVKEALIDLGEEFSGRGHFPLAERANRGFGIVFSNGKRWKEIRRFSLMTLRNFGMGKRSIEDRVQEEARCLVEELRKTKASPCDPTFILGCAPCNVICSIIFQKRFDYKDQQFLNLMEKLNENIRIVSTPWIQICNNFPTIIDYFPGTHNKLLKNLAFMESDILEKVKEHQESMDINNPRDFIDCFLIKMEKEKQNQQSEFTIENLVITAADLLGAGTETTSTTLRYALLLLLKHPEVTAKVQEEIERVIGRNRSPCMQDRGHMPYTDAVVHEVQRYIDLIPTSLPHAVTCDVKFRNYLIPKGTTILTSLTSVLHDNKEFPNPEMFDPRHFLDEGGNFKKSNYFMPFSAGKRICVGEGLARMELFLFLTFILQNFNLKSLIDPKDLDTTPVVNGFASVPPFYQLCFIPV
Trypsin, sequence (P00761 whole entry): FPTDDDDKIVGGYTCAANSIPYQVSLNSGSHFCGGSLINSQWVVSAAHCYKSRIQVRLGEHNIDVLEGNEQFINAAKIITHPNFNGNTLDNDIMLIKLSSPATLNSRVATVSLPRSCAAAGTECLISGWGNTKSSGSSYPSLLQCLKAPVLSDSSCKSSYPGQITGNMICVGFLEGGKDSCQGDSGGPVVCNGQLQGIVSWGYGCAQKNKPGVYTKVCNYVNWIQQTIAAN
Cytochrome P450 3A4, sequence (P08684 whole entry): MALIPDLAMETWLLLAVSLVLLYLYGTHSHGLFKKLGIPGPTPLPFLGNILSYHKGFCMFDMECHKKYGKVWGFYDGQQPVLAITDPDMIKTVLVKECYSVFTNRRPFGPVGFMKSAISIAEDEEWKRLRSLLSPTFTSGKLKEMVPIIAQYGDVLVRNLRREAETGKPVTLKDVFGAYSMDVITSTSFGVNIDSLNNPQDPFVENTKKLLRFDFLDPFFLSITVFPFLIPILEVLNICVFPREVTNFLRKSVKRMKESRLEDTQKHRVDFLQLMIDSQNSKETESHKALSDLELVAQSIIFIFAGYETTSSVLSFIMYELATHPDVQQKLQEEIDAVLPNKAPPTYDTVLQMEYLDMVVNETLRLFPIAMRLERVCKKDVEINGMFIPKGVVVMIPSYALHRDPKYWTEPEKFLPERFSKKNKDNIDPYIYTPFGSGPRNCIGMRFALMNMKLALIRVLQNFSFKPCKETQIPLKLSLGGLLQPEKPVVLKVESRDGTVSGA
Mu-type opioid receptor, sequence (P35372 whole entry): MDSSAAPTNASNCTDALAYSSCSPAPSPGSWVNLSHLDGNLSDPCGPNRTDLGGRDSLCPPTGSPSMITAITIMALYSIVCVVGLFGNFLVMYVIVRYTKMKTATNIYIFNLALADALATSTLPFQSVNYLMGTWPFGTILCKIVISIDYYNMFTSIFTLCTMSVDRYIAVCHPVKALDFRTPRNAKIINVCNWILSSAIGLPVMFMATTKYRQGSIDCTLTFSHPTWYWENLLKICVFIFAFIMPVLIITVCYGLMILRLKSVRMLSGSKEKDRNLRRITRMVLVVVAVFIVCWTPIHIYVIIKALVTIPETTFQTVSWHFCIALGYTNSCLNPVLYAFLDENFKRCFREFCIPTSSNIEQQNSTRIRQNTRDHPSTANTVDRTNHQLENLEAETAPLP

- AC50 (CAAX prenyl protease 2 [1]): 4.64 µM (active)
- AC50 (Trypsin): 4.21 µM (active)
- AC50 (CAAX prenyl protease 2 [2]): 3.19 µM (active)
SMILES: CC1(C(=O)N(CC(=O)NC2CCCC2)Cc2ccco2)CC(=O)N=C2C=CC=CN21 (stereo unspecified)

SMILES: CCOC(=O)c1ccc2[nH]c3ccccc3c2c1
- IC50 (HEK293): > 67.5 µM (inactive)
- IC50 [3]: > 67.5 µM (inactive)

SMILES: O=C(Nc1cc(C(=O)Nc2ccc(S(=O)(=O)O)cc2S(=O)(=O)O)cc(C(=O)Nc2ccc(S(=O)(=O)O)cc2S(=O)(=O)O)c1)Nc1cc(C(=O)Nc2ccc(S(=O)(=O)O)cc2S(=O)(=O)O)cc(C(=O)Nc2ccc(S(=O)(=O)O)cc2S(=O)(=O)O)c1
- AC50 [4]: 35.5 µM (inconclusive)
- AC50 (Cytochrome P450 1A2): 31.6 µM (inconclusive) and 39.8 µM (inconclusive)

- IC50 [5]: 31.3 µM (active)
- IC50 (Caspase-3): 32.5 µM (active)
- IC50 [6]: 8.6 µM (active)
SMILES: Cc1ccc(NC(=O)c2cccc3cccnc23)cc1
- IC50 [7]: 24.3 µM (active)

SMILES: Nc1ncnc2c1ncn2C1C=C(CO)C(O)C1O (stereo unspecified)
- IC50 (HEK293): > 2.51 µM (active)
- IC50 [3]: > 67.7 µM (inactive)

- AC50 (Cytochrome P450 3A4): 0.316 µM (inconclusive)
SMILES: C[C@H](O)C(=O)C1=Nc2c(nc(N)[nH]c2=O)NC1 [SEPIAPTERIN]
- AC50 [4]: 28.2 µM (inconclusive)

SMILES: CC1=NN=C(c2ccc(N)cc2)c2cc3c(cc2C1)OCO3
- AC50 [4]: 35.5 µM (inconclusive)
- EC50 [8]: 76.1 µM (inactive)
- EC50 (Mu-type opioid receptor): 92.5 µM (inactive)

- IC50 [5]: > 100 µM (inactive)
- IC50 (Caspase-3): 95 µM (active)
- IC50 [6]: > 100 µM (inactive)
SMILES: Cc1ccc(/N=C/c2c(O)oc3ccccc3c2=O)c(C)c1
- IC50 [7]: > 100 µM (inactive)

SMILES: C=CCOC(=O)C1=C(C)OC(N)=C(C#N)C1c1ccco1 (stereo unspecified)
- IC50 (HEK293): > 67.5 µM (inactive)
- IC50 [3]: > 67.5 µM (inactive)

- IC50 [5]: > 100 µM (inactive)
- IC50 (Caspase-3): 19.7 µM (active)
- IC50 [6]: 4.08 µM (active)
SMILES: Cc1nc2cc(NC(=O)c3ccc(Br)s3)ccc2s1
- IC50 [7]: > 100 µM (inactive)

- AC50 (Cytochrome P450 2C19): 11.2 µM (inconclusive)
- AC50 (Cytochrome P450 2D6): inconclusive
- AC50 (Cytochrome P450 1A2): 20 µM (inconclusive)
SMILES: CC1Cc2ccccc2N1C(=O)CSCC(=O)O (stereo unspecified)
